Measurements from PubChem BioAssay (NCI).
Several values for one entry are separate records, joined by “and”; a condition that tells them apart may be missing. Equal values may be shown once.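 Test compounds were applied to cells in 96-well plates for 48 hours at 5 doses. GI50 = concentration required for 50% inhibition of growth. TGI marks complete inhibition of growth.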

Key:
Assay in all cases: inhibition of tumour cell growth, NCI panel, 48 h
EKVX NSCLC = test system: EKVX NSCLC
NCI-H226 lung = test system: NCI-H226 lung
K-562 leukemia = test system: K-562 leukemia
DU-145 prostate = test system: DU-145 prostate
786-0 renal = test system: 786-0 renal
SF-295 CNS = test system: SF-295 CNS
SK-MEL-2 melanoma = test system: SK-MEL-2 melanoma
SNB-75 CNS = test system: SNB-75 CNS
UACC-257 melanoma = test system: UACC-257 melanoma
LOX IMVI melanoma = test system: LOX IMVI melanoma

Row | Compound | TGI (EKVX NSCLC) [nM] | TGI (NCI-H226 lung) | TGI (K-562 leukemia) | TGI (DU-145 prostate) [nM] | TGI (786-0 renal) [nM] | TGI (SF-295 CNS) | TGI (SK-MEL-2 melanoma) | TGI (SNB-75 CNS) | TGI (UACC-257 melanoma) | TGI (LOX IMVI melanoma) | GI50 (EKVX NSCLC) [nM] | GI50 (NCI-H226 lung) [nM] | GI50 (K-562 leukemia) [nM] | GI50 (DU-145 prostate) [nM] | GI50 (786-0 renal) [nM] | GI50 (SF-295 CNS) [nM] | GI50 (SK-MEL-2 melanoma) [nM] | GI50 (SNB-75 CNS) [nM] | GI50 (UACC-257 melanoma) [nM] | GI50 (LOX IMVI melanoma) [nM]
1 | O=C(O)CCNCC(=O)O | > 100000 | > 100000 nM | > 100000 nM | > 100000 | > 100000 | > 100000 nM | > 100000 nM | > 100000 nM | > 100000 nM | > 100000 nM | – | – | – | – | – | – | – | – | – | –
2 | Cc1cc2c(C(=O)NC[C@H](C)c3ccccc3)c(O)c(O)cc2c(O)c1-c1c(C)cc2c(C(=O)NC[C@H](C)c3ccccc3)c(O)c(O)cc2c1O | 8100 | 987 nM | 7690 nM | 14300 | 1800 | 702 nM | 4230 nM | 1980 nM | 7230 nM | 4890 nM | 411 | 244 | 170 | 300 | 368 | 131 | 596 | 251 | 1370 | 539
3 | COC(=O)[C@@H]1c2cc3c(c(O)c2[C@@H](OC2OC(C)C(OC)C(C)(OC)C2OC)C[C@]1(C)O)C(=O)c1c(O)cc2c(c1C3=O)O[C@H]1O[C@]2(C)[C@H](O)[C@@H](N(C)C)[C@@H]1O (stereo partly specified) | – | 71.8 nM and 96.6 nM | 399 nM and 162 nM | 455 | 2100 | 254 nM and 1220 nM | 13.4 nM and 17.7 nM | 52.2 nM and 12.5 nM | 63.8 nM and 47.2 nM | 152 nM and 1220 nM | 103 | – | – | – | – | – | – | – | 12.3 | –
4 | Cc1nn(CNc2ccccc2C(F)(F)F)c(=S)n1/N=C/c1cccc2cccnc12 | > 100000 | > 100000 nM | > 100000 nM | > 100000 | > 100000 | > 100000 nM | > 100000 nM | > 100000 nM | > 100000 nM | > 100000 nM | > 100000 | 56200 | 35800 | > 100000 | > 100000 | > 100000 | > 100000 | 27400 | > 100000 | 34700
5 | CCc1ccc(Oc2c(-c3ccc(OCc4ccc(Cl)cc4)cc3O)n[nH]c2C(F)(F)F)cc1 | 4340 | 5260 nM | 5370 nM | 7440 | 3270 | 4740 nM | 3740 nM | 5800 nM | 3800 nM | 3010 nM | 1890 | 2110 | 2320 | 2640 | 1720 | 2040 | 1750 | 1480 | 1840 | 1630
6 | CC(=O)O[C@@H]1C2CCC3C(CC[C@@]4(C)C3CC[C@@H]4C(C)N(C)C)[C@@]2(C)CC[C@@H]1NC(=O)C=C(C)C (stereo partly specified) | 16600 | 19600 nM | 3150 nM | 16400 | 6730 | 4420 nM | 6850 nM | 9310 nM | 4980 nM | 3090 nM | 2800 | 5220 | 1100 | 4000 | 2420 | 1850 | 2890 | 2350 | 2330 | 1470
7 | Oc1c(Cl)cc(Cl)c(Cl)c1CNCCNCc1c(O)c(Cl)cc(Cl)c1Cl | 10200 | 18100 nM | > 50000 nM | 12600 | 8430 | 20300 nM | 14100 nM | 10600 nM | 9880 nM | 5190 nM | 1320 | 4100 | 483 | 2090 | 1480 | 1260 | 3400 | 2430 | 1760 | 357
